Experimental findings from patent US20080026952A1, “HCV replicon shuttle vectors” (priority 2005, published 2008) are described below.

Experiment [1] has as its system HCV replicon containing NS5B from Clinical Isolate Pt 8 in Huh7 cells. Nature of the experiment: Transient replicon phenotypic assay (firefly luciferase), patient-derived NS5B Pt 8. Type of experiment: cell-based, HCV genotype 1a. Conditions: Hepatitis C virus, genotype 1a, Huh-7, 72 h, read-out: 2′-C-Me-C IC50. The method, then:
(§1) Five micrograms of DNA plasmids were linearized by Sca I restriction enzyme (Roche). After overnight digestion at 37° C., the DNA was purified using Qiagen PCR purification kit. One microgram of linearized DNA was used for the in vitro transcription using T7 Mega script kit following manufacturer's protocol (Ambion). After 2 hours of incubation at 37° C., DNase treatment was performed for 30 minutes at 37° C. to remove the DNA template. In vitro transcribed RNA was then purified using NucAway Spin Column following manufacturer's protocol (Ambion).
(§2) Cured hepatoma cell line Huh7 were cultured at 37° C. in a humidified atmosphere with 5% CO2 in Dulbecco's Modified Eagle Medium (DMEM) supplemented with Glutamax™ and […] sodium pyruvate (Cat #10569-010). The medium was further supplemented with 10% (v/v) FBS (Cat #16000-036) and 1% (v/v) penicillin/streptomycin (Cat #15140-122). All reagents were from Invitrogen/Gibco.
(§3) Four million cured Huh7 cells were transfected with 5 μg of in vitro transcribed RNA using electroporation. […] Inhibitors were added 24 hours post-transfection in 3 fold dilutions at a final DMSO concentration of 1% and firefly luciferase reporter signal was read 72 hours after addition of inhibitors using the Luciferase Assay system (Promega, cat #E1501). […]
In general terms: A replicon is a self-replicating genome or part of one, used to study replication in cells.

The test system of experiment [2] is HCV replicon containing NS5B from Clinical Isolate Pt 7 in Huh7 cells. Nature of the experiment: Transient replicon phenotypic assay (firefly luciferase), patient-derived NS5B Pt 7. Conditions: Hepatitis C virus, genotype 1a, Huh-7, 72 h, read-out: 2′-C-Me-C IC50. Type of experiment: cell-based, HCV genotype 1a. The method, then: as §1, §2, §3
Experiment [3] concerns HCV replicon pSS-1_1a_NS5B_5′AsiSI_3′RsrII in Huh7 cells. Put plainly: Transient replicon phenotypic assay (firefly luciferase), reference shuttle vector. Conditions: Hepatitis C virus, Huh-7, 72 h, read-out: 2′-C-Me-C IC50. Type of experiment: cell-based, HCV genotype 1a (H77). The method, then: as §1, §2, §3
Experiment [4] has as its system HCV replicon containing NS5B from Clinical Isolate Pt 6 in Huh7 cells. Put plainly: Transient replicon phenotypic assay (firefly luciferase), patient-derived NS5B Pt 6. In kind it is cell-based, HCV genotype 1a. The following applies: Hepatitis C virus, genotype 1a, Huh-7, 72 h, read-out: 2′-C-Me-C IC50. The method, then: as §1, §2, §3
In experiment [5] the test system is HCV replicon containing NS5B from Clinical Isolate Pt 5 in Huh7 cells. Nature of the experiment: Transient replicon phenotypic assay (firefly luciferase), patient-derived NS5B Pt 5. In kind it is cell-based, HCV genotype 1a. Conditions: Hepatitis C virus, genotype 1a, Huh-7, 72 h, read-out: 2′-C-Me-C IC50. The method, then:
as §1, §2, §3

Experiment [6] relates to HCV replicon containing NS5B from Clinical Isolate Pt 9 in Huh7 cells. Nature of the experiment: Transient replicon phenotypic assay (firefly luciferase), patient-derived NS5B Pt 9. In kind it is cell-based, HCV genotype 1a. The following applies: Hepatitis C virus, genotype 1a, Huh-7, 72 h, read-out: 2′-C-Me-C IC50. The method, then:
as §1, §2, §3

For experiment [7], the system named is HCV replicons with NS5B from genotype-1a and genotype-1b clinical isolates in Huh-7 cells. Nature of the experiment: Sensitivity of treatment naive NS5B clinical isolates versus reference replicons (FIG. 3). Type of experiment: cell-based, HCV genotype-1a and genotype-1b. The following applies: pools of 96 clones per isolate, reference replicons Con1 (genotype-1b) and H77 (genotype-1a). The method, then:
Four million cured Huh7 cells were transfected with 5 μg of in vitro transcribed RNA using electroporation. Cells were then resuspended in 7.2 ml of DMEM containing 5% FBS and plated in 96-well plate at 50000 cells/well (in 90 μl final volume). Inhibitors were added 24 hours post-transfection in 3 fold dilutions at a final DMSO concentration of 1% and firefly luciferase reporter signal was read 72 hours after addition of inhibitors using the Luciferase Assay system (Promega, cat #E1501). The IC50 values were assessed as the inhibitor concentration at which a 50% reduction in the level of firefly luciferase reporter was observed as compared to the level of firefly luciferase signal without the addition of compounds. Results of studies testing the inhibitory effects of the compound, 2′-C-Methyl-Cytidine, on replication of pSS-1—1a_NS5B—5′AsiSI—3′RsrII and replicons with patient-derived NS5B sequences are shown in Table 2.
In order to test the sensitivity of HCV polymerase inhibitors across genetically diverse and treatment naive clinical isolates, the NS5B coding region from the isolates was amplified and cloned into the replicon shuttle replicons (clinical isolates from genotype-1a were cloned into pSS-1—1a—5′AsiSI_lacZAmC—3′RsrII and genotype-1b clinical isolates were cloned into pSC—1b—5′AsiSI_lacZAmC—3′RsrII). 96 molecular clones were pooled for each clinical isolate. […]

For the molecule `C[C@@]1(O)[C@H](O)[C@@H](CO)O[C@H]1n1ccc(N)nc1=O` [2′-C-Me-C, 2′-C-Methyl-Cytidine], the IC50 (commonly the point on the concentration scale where inhibition reaches its midpoint) in experiment [1] came to 400 ± 70 nM; in experiment [2], 300 ± 50 nM; in experiment [3], 400 ± 30 nM; in experiment [4], 300 ± 40 nM; in experiment [5], 300 ± 50 nM; in experiment [6], 400 ± 60 nM.
As for `C1=NNSc2ccccc21` [benzothiadiazine], the “potency across the NS5B clinical isolates as compared to the reference replicons” value in experiment [7] is “variable potencies”.
In the case of `O=C(O)c1cccs1` [thiophene-2-carboxylic acid], the “potency across the NS5B clinical isolates as compared to the reference replicons” value in experiment [7] is reported as “variable potencies”.
